In paper PMC12214007, “CARF-dependent preferential RNA cleavage by Csm6 increases drug susceptibility of mycobacteria” (Nucleic Acids Research, 2025):

Target: Csm6 (Mtb Csm6) (Mycobacterium tuberculosis, UniProt P71635)
Sequence (P71635 34-415): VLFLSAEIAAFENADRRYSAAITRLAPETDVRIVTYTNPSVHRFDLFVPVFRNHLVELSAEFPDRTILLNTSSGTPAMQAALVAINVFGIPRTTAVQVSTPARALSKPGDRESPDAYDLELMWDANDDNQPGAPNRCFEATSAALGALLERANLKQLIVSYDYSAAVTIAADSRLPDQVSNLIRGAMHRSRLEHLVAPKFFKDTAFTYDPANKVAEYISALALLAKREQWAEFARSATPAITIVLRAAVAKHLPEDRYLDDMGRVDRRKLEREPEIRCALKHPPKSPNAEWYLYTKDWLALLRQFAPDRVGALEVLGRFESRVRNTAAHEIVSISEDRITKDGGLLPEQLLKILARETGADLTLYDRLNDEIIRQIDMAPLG

`Nc1ncnc2c1ncn2[C@@H]1O[C@@H]2COP(=O)(O)O[C@H]3[C@@H](O)[C@H](n4cnc5c(N)ncnc54)O[C@@H]3COP(=O)(O)O[C@H]3[C@@H](O)[C@H](n4cnc5c(N)ncnc54)O[C@@H]3COP(=O)(O)O[C@H]3[C@@H](O)[C@H](n4cnc5c(N)ncnc54)O[C@@H]3COP(=O)(O)O[C@H]3[C@@H](O)[C@H](n4cnc5c(N)ncnc54)O[C@@H]3COP(=O)(O)O[C@H]3[C@@H](O)[C@H](n4cnc5c(N)ncnc54)O[C@@H]3COP(=O)(O)O[C@H]2[C@H]1O` [cA6, cyclic hexa-adenylate] was tested, and the “gel-based cleavage assay of Cy5-labelled 24 nt ssRNA” value was “the presence of cA6 significantly enhances the nuclease activity of Csm6”.
